Laboratory results from patent publication US11655216B2 (priority 2016, dated 2023).
Where two headings read alike, the source gives them in different places.

How the values were obtained:
[1] = target: T1, glutathione-S-transferase (GST) tagged LXRbeta LBD (ligand binding domain) (Homo sapiens, UniProt P55055); experiment: LanthaScreen TR-FRET Liver X Receptor Coactivator Assay, LXR beta; format: biochemical; conditions: for EC50: LXR beta IP, potency (Inflection Point), compound-induced co-activator recruitment, TR-FRET; for Emax: read-out: LXR beta actiivty at max dose, efficacy (% Emax) in relation to reference dual agonist T0901317
T1 construct: purchased Invitrogen pv4658
T1 sequence (P55055 222-460 limits assumed): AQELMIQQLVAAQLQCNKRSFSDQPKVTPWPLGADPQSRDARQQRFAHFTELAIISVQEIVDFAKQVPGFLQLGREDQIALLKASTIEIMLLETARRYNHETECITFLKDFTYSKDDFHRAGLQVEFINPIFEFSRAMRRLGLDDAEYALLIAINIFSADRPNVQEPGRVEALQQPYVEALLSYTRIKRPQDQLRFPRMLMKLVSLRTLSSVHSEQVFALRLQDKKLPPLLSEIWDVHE
Method: (§1) While running the LanthaScreen™ TR-FRET Liver X Receptor Coactivator Assay, LXR alpha-LBD or LXR beta-LBD was added to ligand test compounds followed by addition of a mixture of a fluorescein-labelled coactivator peptide and terbium-conjugated anti-GST antibody. After an incubation period at room temperature, TR-FRET (time-resolved fluorescence resonance energy transfer) was measured using a filter-based instrument capable of TR-FRET, e.g. PerkinElmer Envision.

[2] = target: T2, glutathione-S-transferase (GST) tagged LXRalpha LBD (ligand binding domain) (Homo sapiens, UniProt Q13133); experiment: biochemical; conditions: for EC50: LXR alpha IP
T2 construct: purchased Invitrogen pv4655
T2 sequence (Q13133 209-447 limits assumed): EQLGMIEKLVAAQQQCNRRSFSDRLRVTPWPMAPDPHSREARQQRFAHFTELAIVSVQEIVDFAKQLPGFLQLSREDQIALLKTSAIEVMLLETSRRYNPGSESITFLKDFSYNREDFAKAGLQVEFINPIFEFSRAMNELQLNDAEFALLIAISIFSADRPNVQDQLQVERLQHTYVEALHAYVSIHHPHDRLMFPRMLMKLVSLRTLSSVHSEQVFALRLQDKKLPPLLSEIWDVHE
Method: as §1

[3] = potency (Inflection Point), compound-induced co-activator recruitment, TR-FRET
[4] = read-out: LXR alpha actiivty at max dose, efficacy (% Emax) in relation to reference dual agonist T0901317

With `CN(C)C(=O)c1ccc(OCCCCC2CCN(C(=O)C3(c4ccccc4)CCC3)CC2)cc1Cl` [Example 3-7, 2-chloro-N,N-dimethyl-4-(4-(1-(1-phenylcyclobutanecarbonyl)piperidin-4-yl)butoxy)benzamide] the EC50 [1] was 57 nM, the Emax [1] was 54% and the “LXR alpha IP” value [2, 3] was “No IP”. It also gave an Emax [2, 4] of 0%.

In the case of `CN(C)C(=O)c1ccc(OC[C@@H]2C[C@H]2C2CCN(C(=O)C(C)(C)c3ccccc3)CC2)cc1Cl` (single isomer, unassigned) [Example 32-4, 2-chloro-N,N-dimethyl-4-(((1R,2S or 1S,2R)-2-(1-(2-methyl-2-phenylpropanoyl)piperidin-4-yl)cyclopropyl)methoxy) benzamide], the EC50 [1] is reported as 163 nM, the Emax [1] is reported as 60% and the “LXR alpha IP” value [2, 3] is reported as “No IP”. For the same compound, the Emax [2, 4] was 0%.

`CN(C)C(=O)c1ccc(OC[C@@H]2C[C@H]2C2CCN(C(=O)[C@](O)(c3ccccc3)C(F)(F)C(F)(F)F)CC2)cc1Cl` (single isomer, unassigned) [Example 32-3, 2-chloro-N,N-dimethyl-4-(((1R,2S or 1S,2R)-2-(1-((R or S)-3,3,4,4,4-pentafluoro-2-hydroxy-2-phenylbutanoyl)piperidin-4-yl)cyclopropyl)methoxy) benzamide] was tested, and the EC50 [1] was 105 nM, the Emax [1] was 125% and the EC50 [2, 3] was 1380 nM. It also gave an Emax [2, 4] of 17%.

In the case of `CN(C)C(=O)c1ccc(OCC2CC3(CCN(C(=O)C(O)(c4ccccc4)C(F)(F)F)CC3)C2)cc1Cl` (single isomer, unassigned) [Example 33-1, 2-chloro-N,N-dimethyl-4-((7-((R or S)-3,3,3-trifluoro-2-hydroxy-2-phenylpropanoyl)-7-azaspiro[3.5]nonan-2-yl)methoxy)benzamide], the EC50 [1] is reported as 9 nM, the Emax [1] is reported as 69% and the EC50 [2, 3] is reported as 329 nM. For the same compound, the Emax [2, 4] was 42%.

`CN(C)C(=O)c1ccc(OCCC2CC23CCN(C(=O)C(C)(C)c2csc(N)n2)CC3)cc1Cl` (single isomer, unassigned) [Example 12-10, (R or S)-4-(2-(6-(2-(2-aminothiazol-4-yl)-2-methylpropanoyl)-6-azaspiro[2.5]octan-1-yl)ethoxy)-2-chloro-N,N-dimethylbenzamide] showed an EC50 [1] of 608 nM, an Emax [1] of 61% and an EC50 [2, 3] of 3740 nM. For the same compound, the Emax [2, 4] was 21%.

`CN(C)C(=O)c1ccc(OCCCCC2CCN(S(=O)(=O)c3ccccc3C(F)(F)F)CC2)nc1Cl` [Example 7-1, 2-chloro-N,N-dimethyl-6-(4-(1-(2-(trifluoromethyl)phenylsulfonyl)piperidin-4-yl)butoxy)nicotinamide] showed an EC50 [1] of 36 nM, an Emax [1] of 138% and an EC50 [2, 3] of 776 nM. It also gave an Emax [2, 4] of 82%.

Work on `COc1cccc([C@@](O)(C(=O)N2CCC([C@H]3CC[C@@H](Oc4ccc(C(=O)N(C)C)c(Cl)c4)CC3)CC2)C(F)(F)F)c1` (single isomer, unassigned) [Example 38-1, 2-chloro-N,N-dimethyl-4-((1S,4s)-4-(1-((R or S)-3,3,3-trifluoro-2-hydroxy-2-(3-methoxyphenyl)propanoyl)piperidin-4-yl)cyclohexyloxy)benzamid] yielded an EC50 [1] of 3 nM, an Emax [1] of 89% and an EC50 [2, 3] of 49 nM. It also gave an Emax [2, 4] of 44%.

With `CN(C)C(=O)c1ccc(OCCCCC2CCN(C(=O)C3(c4ccccc4)CCCO3)CC2)cc1Cl` (single isomer, unassigned) [Example 3-5, (S or R)-2-chloro-N,N-dimethyl-4-(4-(1-(2-phenyl-tetrahydrofuran-2-carbonyl)piperidin-4-yl)butoxy)benzamide] the EC50 [1] was 91 nM, the Emax [1] was 54% and the “LXR alpha IP” value [2, 3] was “No IP”. It also gave an Emax [2, 4] of 0%.

`COc1cccc(C(O)(C(=O)N2CCC(CCCCOc3ccc(C(=O)N(C)C)c(OC)c3)CC2)C(F)(F)F)c1` (single isomer, unassigned) [Example 5-1, (R or S)-2-methoxy-N,N-dimethyl-4-(4-(1-(3,3,3-trifluoro-2-hydroxy-2-(3-methoxyphenyl)propanoyl)piperidin-4-yl)butoxy)benzamide] gave an EC50 [1] of 36 nM, an Emax [1] of 66% and an Emax ([2]; efficacy (% Emax) in relation to reference dual agonist T0901317, read-out: LXR alpha actiivty at max dose) of 7%. The “LXR alpha IP” value [2, 3] was “No IP”.

With `CCc1cccc([C@@](O)(C(=O)N2CCC(C[C@H]3C[C@@H](Oc4ccc(C(=O)N(C)C)c(Cl)c4)C3)CC2)C(F)(F)F)c1` (single isomer, unassigned) [Example 37-4, 2-chloro-4-((1R,3s)-3-((1-((R or S)-2-(3-ethylphenyl)-3,3,3-trifluoro-2-hydroxypropanoyl)piperidin-4-yl)methyl)cyclobutoxy)-N,N-dimethylbenzamide] the EC50 [1] was 16 nM, the Emax [1] was 120% and the “LXR alpha IP” value [2, 3] was “No IP”. The Emax [2, 4] was 13%.

For `CN(C)C(=O)c1ccc(OCCCCC2CCN(C(=O)C(O)(c3ccccc3)C(F)(F)F)CC2)cc1Cl` (single isomer, unassigned) [Example 3-8, 2-chloro-N,N-dimethyl-4-(4-(1-(3,3,3-trifluoro-2-hydroxy-2-phenylpropanoyl)piperidin-4-yl)butoxy)benzamide], the EC50 [1] was 5 nM, the Emax [1] was 85% and the EC50 [2, 3] was 173 nM. The Emax [2, 4] was 30%.

`CN(C)C(=O)c1ccc(OCC[C@@H]2CC23CCN(C(=O)C(O)(c2cccc4c2OC(F)(F)O4)C(F)(F)F)CC3)cc1Cl` (single isomer, unassigned) [Example 12-16, 2-chloro-4-(2-((1S or 1R)-6-(2-(2,2-difluorobenzo[d][1, 3]dioxol-4-yl)-3,3,3-trifluoro-2-hydroxypropanoyl)-6-azaspiro[2.5]octan-1-yl)ethoxy)-N,N-dimethylbenzamide] was tested, and the EC50 [1] was 26 nM, the Emax [1] was 33% and the “LXR alpha IP” value [2, 3] was “No IP”. For the same compound, the Emax [2, 4] was 8%.

For `CN(C)C(=O)c1ccc(OCCCCC2CCN(C(=O)C(O)(c3ccccc3)C(F)(F)F)CC2)nc1Cl` (single isomer, unassigned) [Example 3-17, (S or R)-2-chloro-N,N-dimethyl-6-(4-(1-(3,3,3-trifluoro-2-hydroxy-2-phenylpropanoyl)piperidin-4-yl)butoxy)nicotinamide], the EC50 [1] was 8 nM and the “LXR beta actiivty at max dose” value ([1]; efficacy (% Emax) in relation to reference dual agonist T0901317) was 74%.

For `O=C(N[C@H]1CCOC1)c1ccc(OCCCCC2CCN(C(=O)[C@](O)(c3ccccc3)C(F)(F)F)CC2)cc1Cl` (single isomer, unassigned) [Example 8-6, 2-chloro-N-((S or R)-tetrahydrofuran-3-yl)-4-(4-(1-((R or S)-3,3,3-trifluoro-2-hydroxy-2-phenylpropanoyl)piperidin-4-yl)butoxy) benzamide], the EC50 [1] was 86 nM, the Emax [1] was 75% and the EC50 [2, 3] was 1050 nM. The Emax [2, 4] was 35%.

For `CN(C)C(=O)c1ccc(OCC[C@H]2CC23CCN(C(=O)[C@](N)(c2ccccc2)C(F)(F)F)CC3)cc1Cl` (single isomer, unassigned) [Example 12-9, 4-(2-((R or S)-6-((R or S)-2-amino-3,3,3-trifluoro-2-phenylpropanoyl)-6-azaspiro[2.5]octan-1-yl)ethoxy)-2-chloro-N,N-dimethylbenzamide], the EC50 [1] was 50 nM, the Emax [1] was 65% and the “LXR alpha IP” value [2, 3] was “No IP”. For the same compound, the Emax [2, 4] was 0%.

With `CN(C)C(=O)c1ccc(O[C@H]2C[C@@H](CC3CCN(C(=O)[C@](O)(c4ccccc4)C(F)(F)F)CC3)C2)cc1Cl` (single isomer, unassigned) [Example 37-1, 2-chloro-N,N-dimethyl-4-((1R,3s)-3-((1-((R or S)-3,3,3-trifluoro-2-hydroxy-2-phenylpropanoyl)piperidin-4-yl)methyl)cyclobutoxy)benzamide] the EC50 [1] was 10 nM, the Emax [1] was 131% and the EC50 [2] was 381 nM. For the same compound, the Emax ([2]; read-out: LXR alpha actiivty at max dose) was 42%.

Compound `CN(C)C(=O)c1ccc(OCCCCC2CCN(C(=O)C(O)(c3ccccc3)C(F)(F)F)CC2)nc1Cl` (single isomer, unassigned) [Example 3-16, (R or S)-2-chloro-N,N-dimethyl-6-(4-(1-(3,3,3-trifluoro-2-hydroxy-2-phenylpropanoyl)piperidin-4-yl)butoxy)nicotinamide] has an EC50 [1] of 259 nM and an Emax [1] of 83%.

`CCc1nc(OCCCCC2CCN(C(=O)C(O)(c3ccccc3)C(F)(F)F)CC2)ccc1C(=O)N(C)C` (stereo not drawn) [Example 5-2, 2-ethyl-N,N-dimethyl-6-(4-(1-(3,3,3-trifluoro-2-hydroxy-2-phenylpropanoyl)piperidin-4-yl)butoxyl)nicotinamide] showed an EC50 [1] of 63 nM and an Emax [1] of 77%.
